Reference: ChEMBL document CHEMBL3580622 (J Nat Prod, 2015)

Columns and labels:
MCF7 = experiment: Cytotoxicity against human MCF7 cells assessed as reduction in cell viability after 48 hrs by MTT assay; format: functional, cell-based; conditions: MCF7, 48 h
A549 = experiment: Cytotoxicity against human A549 cells assessed as reduction in cell viability after 48 hrs by MTT assay; format: functional, cell-based; conditions: A549, 48 h
SW480 = experiment: Cytotoxicity against human SW480 cells assessed as reduction in cell viability after 48 hrs by MTT assay; format: functional, cell-based; conditions: SW480, 48 h
SMMC-7721 = experiment: Cytotoxicity against human SMMC7721 cells assessed as reduction in cell viability after 48 hrs by MTT assay; format: functional, cell-based; conditions: SMMC-7721, 48 h
HL-60 = experiment: Cytotoxicity against human HL60 cells assessed as reduction in cell viability after 48 hrs by MTT assay; format: functional, cell-based; conditions: HL-60, 48 h
Acetylcholinesterase = Acetylcholinesterase (Homo sapiens, UniProt P22303); experiment: Inhibition of human erythrocytes acetylcholinesterase after 30 mins using S-acetylthiocholine iodide substrate by spectrophotometry based Ellman method
Chain of Acetylcholinesterase (P22303 whole entry): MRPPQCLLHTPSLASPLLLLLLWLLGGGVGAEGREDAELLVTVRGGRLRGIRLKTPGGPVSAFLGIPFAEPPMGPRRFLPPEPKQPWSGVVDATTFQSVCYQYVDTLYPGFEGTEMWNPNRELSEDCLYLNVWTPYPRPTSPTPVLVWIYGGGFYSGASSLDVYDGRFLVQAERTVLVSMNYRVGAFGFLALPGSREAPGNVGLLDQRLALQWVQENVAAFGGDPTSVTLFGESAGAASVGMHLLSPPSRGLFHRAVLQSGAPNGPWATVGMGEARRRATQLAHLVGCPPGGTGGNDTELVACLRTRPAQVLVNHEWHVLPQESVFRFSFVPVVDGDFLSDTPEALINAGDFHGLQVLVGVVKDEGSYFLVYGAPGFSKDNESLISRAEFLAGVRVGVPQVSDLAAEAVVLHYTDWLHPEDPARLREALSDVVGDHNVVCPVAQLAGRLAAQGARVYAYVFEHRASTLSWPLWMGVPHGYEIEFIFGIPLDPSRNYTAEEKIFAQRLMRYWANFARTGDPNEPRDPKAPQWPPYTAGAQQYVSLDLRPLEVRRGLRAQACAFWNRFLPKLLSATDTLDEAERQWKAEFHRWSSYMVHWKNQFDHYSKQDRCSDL

| Compound | IC50 (MCF7) [µM] | IC50 (A549) [µM] | IC50 (SW480) [µM] | IC50 (SMMC-7721) [µM] | IC50 (HL-60) [µM] | IC50 (Acetylcholinesterase) [µM] |
| --- | --- | --- | --- | --- | --- | --- |
| CC(C)=CCC[C@]1(C)[C@@H](CC=C(C)C)C[C@]2(CC=C(C)C)C(=O)C(CC=C(C)C)=C(O)[C@@]1(C(=O)C(C)C)C2=O | > 40 | > 40 | > 40 | > 40 | > 40 |  |
| CCC(C)C(=O)[C@]12C(=O)[C@]3(CC=C(C)C)C[C@H](CC=C(C)C)[C@@]1(C)CC[C@@H](C(C)(C)O)OC2=C(CC=C(C)C)C3=O (some centres undefined) |  |  |  |  |  | 37.2 |
| C=C(C)[C@H]1CC[C@@](C)(O)[C@@H](C2=C(O)C(CC=C(C)C)(CC=C(C)C)C(=O)C(C(=O)C(C)C)=C2O)C1 |  |  |  |  |  | 25.4 |
| CC(C)=CC[C@H]1C[C@]23C[C@H]4C(C)(C)c5ccccc5C(=O)[C@]45C(=O)[C@](CC=C(C)C)(C2=O)[C@@H](CC=C(C)C)[C@@]1(C)[C@@]35O | 27.7 | 19.3 | > 40 | 20.8 | 14 |  |
| CC(C)=CC[C@]12C[C@@H]3[C@@H]4[C@@H](O)C(C)(C)[C@@H](C(C)C)CC4(C1=O)C(=O)[C@](C(=O)c1ccccc1)(C2=O)C3(C)C | 14.1 | 14.2 | 17.4 | 16.5 | 16.5 | 26.4 |
| CC(C)=CCC/C(C)=C/C[C@]12C[C@@H]3[C@@H]4[C@@H](O)C(C)(C)[C@@H](C(C)C)CC4(C1=O)C(=O)[C@](C(=O)c1ccccc1)(C2=O)C3(C)C | 17.6 | 13.3 | 19.1 | 14.2 | 14.5 |  |
| CC(C)=CC[C@]12C[C@@H]3[C@@H]4[C@@H](O)C(C)(C)[C@@H](C(C)(C)O)CC4(C1=O)C(=O)[C@](C(=O)c1ccccc1)(C2=O)C3(C)C | 28.4 | 24.9 | > 40 | 20.8 | 17.1 |  |
| C/C(=C\C[C@]12C[C@H]3C[C@@H]4C(C)(C)CC[C@@]4(C1=O)C(=O)[C@](C(=O)c1ccccc1)(C2=O)C3(C)C)CC/C=C/C(C)C |  |  |  |  |  | 9.8 |
| CCC(C)C(=O)[C@]12C(=O)[C@]3(CC=C(C)C)OC1(O)[C@](CC=C(C)C)(C[C@H](CC=C(C)C)[C@@]2(C)CCC=C(C)C)C3=O (some centres undefined) | > 40 | > 40 | > 40 | > 40 | > 40 |  |
| CC(C)=CCC[C@]1(C)[C@@H](CC=C(C)C)C[C@]23C[C@@H](C(C)(C)O)OC2=C(CC=C(C)C)C(=O)[C@@]1(C(=O)C(C)C)C3=O | > 40 | > 40 | > 40 | > 40 | > 40 |  |
| CCC(C)C(=O)[C@@]12C(=O)C(CC=C(C)C)=C3O[C@H](C(C)(C)O)C[C@]3(C[C@H](CC=C(C)C)[C@@]1(C)CCC=C(C)C)C2=O (some centres undefined) | > 40 | > 40 | > 40 | > 40 | > 40 |  |
| CC(C)=CCC[C@]1(C)[C@@H](CC=C(C)C)C[C@]23C[C@@H](C(C)(C)O)OC2=C(CC=C(C)C)C(=O)[C@@]1(C(=O)c1ccccc1)C3=O | > 40 | > 40 | > 40 | > 40 | > 40 |  |
| CC(C)=CCC1(CC=C(C)C)C(=O)[C@]2(C[C@H]3[C@@H](CC[C@@]3(C)O)[C@](C)(O)C2)C(=O)C(C(=O)C(C)C)=C1O | > 40 | > 40 | > 40 | > 40 | > 40 |  |
| CC(C)=CCC/C(C)=C/C[C@]12C[C@@H]3[C@H](C=C(C)C)[C@](CC=C(C)C)(C1=O)C(=O)[C@](C(=O)c1ccccc1)(C2=O)C3(C)C | > 40 | > 40 | > 40 | > 40 | > 40 |  |
| CC(C)=CCC[C@]1(C)[C@@H](CC=C(C)C)C[C@]2(CC=C(C)C)C(=O)[C@@]3(CC=C(C)C)OC2(O)[C@]1(C(=O)C(C)C)C3=O | > 40 | > 40 | > 40 | > 40 | > 40 |  |
| CC(=O)O[C@H]1C(=O)[C@@]2(C)[C@H]([C@H](OC(=O)c3ccccc3)[C@]3(O)C[C@H](OC(=O)[C@H](O)[C@@H](NC(=O)c4ccccc4)c4ccccc4)C(C)=C1C3(C)C)[C@]1(OC(C)=O)CO[C@@H]1C[C@@H]2O [PACLITAXEL] | < 0.008 | < 0.008 | < 0.008 | < 0.008 | < 0.008 |  |
| CC(C)=CC[C@]12C[C@@H]3[C@H](C=C(C)C)[C@](CC=C(C)C)(C1=O)C(=O)[C@](C(=O)c1ccccc1)(C2=O)C3(C)C [PLUKENETIONE A] | 27.7 | 19.8 | > 40 | 16.6 | 23.6 |  |
